The NIST ThermoML archive (doi:10.1016/j.tca.2015.01.022)

Test: molar heat capacity at constant pressure
Settings: 101.33 kPa, Small (less than 1 g) adiabatic calorimetry

CCCCCCCC[n+]1ccn(C)c1.F[B-](F)(F)F [1-methyl-3-octylimidazolium tetrafluoroborate]
Settings	molar heat capacity at constant pressure [J/K/mol]
148.21 K, Glass	270.7
149.81 K, Crystal	251.1
150 K, Crystal	251.3
150 K, Glass	273.5
150.08 K, Crystal	251.3
150.11 K, Glass	273.6
151.75 K, Crystal	253.4
152 K, Glass	276.6
152.02 K, Crystal	253.6
153.69 K, Crystal	255.7
153.91 K, Glass	279.6
153.96 K, Crystal	255.9
155.63 K, Crystal	258
155.81 K, Glass	282.6
155.9 K, Crystal	258.3
157.57 K, Crystal	260.3
157.72 K, Glass	285.4
157.84 K, Crystal	260.6
159.5 K, Crystal	262.7
159.62 K, Glass	288.5
159.77 K, Crystal	263
160 K, Crystal	263.2
160 K, Glass	289.3
161.44 K, Crystal	265.2
161.53 K, Glass	291.6
161.71 K, Crystal	265.3
162.37 K, Glass	293
163.37 K, Crystal	267.5
163.44 K, Glass	294.7
163.64 K, Crystal	267.7
164.32 K, Glass	296.1
165.31 K, Crystal	270
165.35 K, Glass	297.8
165.57 K, Crystal	270.2
166.17 K, Glass	299.2
167.24 K, Crystal	272.5
167.26 K, Glass	301.2
167.5 K, Crystal	272.7
168.01 K, Glass	302.3
169.16 K, Crystal	275
169.17 K, Glass	304.3
169.43 K, Crystal	275.2
169.85 K, Glass	305.4
170 K, Crystal	276
170 K, Glass	305.6
171.09 K, Crystal	277.5
171.09 K, Glass	307.7
171.36 K, Crystal	277.7
171.68 K, Glass	308.8
173 K, Glass	311.1
173.01 K, Crystal	280.1
173.28 K, Crystal	280.3
173.52 K, Glass	311.9
174.93 K, Crystal	282.6
174.93 K, Glass	314.5
175.2 K, Crystal	282.9
175.35 K, Glass	315.3
176.85 K, Crystal	285.4
176.85 K, Glass	318.4
177.12 K, Crystal	285.7
177.17 K, Glass	319.3
178.76 K, Crystal	288.3
178.77 K, Glass	322.6
179 K, Glass	322.9
179.03 K, Crystal	288.3
180 K, Crystal	290
180 K, Glass	325.4
180.67 K, Crystal	291.1
180.7 K, Glass	327.1
180.82 K, Glass	327.4
180.94 K, Crystal	291.4
182.58 K, Crystal	293.9
182.63 K, Glass	332.5
182.85 K, Crystal	294.2
184.43 K, Glass	338.1
184.48 K, Crystal	296.7
184.56 K, Glass	339
184.75 K, Crystal	297
186.22 K, Glass	345.5
186.38 K, Crystal	299.8
186.48 K, Glass	348
186.65 K, Crystal	299.8
187.99 K, Glass	355.9
188.27 K, Crystal	302.6
188.39 K, Glass	361.5
188.55 K, Crystal	302.6
189.72 K, Glass	373.1
190 K, Crystal	305
190 K, Glass	380.4
190.16 K, Crystal	305.4
190.27 K, Liquid	387.4
190.44 K, Crystal	305.4
191.35 K, Liquid	408.9
192.04 K, Crystal	308.3
192.05 K, Liquid	444.4
192.32 K, Crystal	308.5
192.85 K, Liquid	463.5
193.84 K, Liquid	466.1
193.92 K, Crystal	311.4
194.2 K, Crystal	311.6
194.36 K, Liquid	466.3
195.76 K, Liquid	466.6
195.8 K, Crystal	314.5
196.08 K, Crystal	314.7
197.67 K, Crystal	317.3
197.7 K, Liquid	465.8
197.95 K, Crystal	317.8
199.54 K, Crystal	320.7
199.64 K, Liquid	464.9
199.82 K, Crystal	320.9
200 K, Crystal	320
200 K, Liquid	464.9
201.46 K, Crystal	323.8
201.58 K, Liquid	464.7
201.81 K, Crystal	324.6
203.44 K, Crystal	327.4
203.53 K, Liquid	464.1
203.91 K, Crystal	328.6
205.42 K, Crystal	331.1
205.47 K, Liquid	463.8
206.02 K, Crystal	332.2
207.4 K, Crystal	334.5
207.42 K, Liquid	463.5
208.11 K, Crystal	335.9
209.36 K, Liquid	463.5
209.37 K, Crystal	338.1
210 K, Crystal	335
210 K, Liquid	463.4
210.2 K, Crystal	339.8
211.3 K, Liquid	463.2
211.34 K, Crystal	342.1
212.28 K, Crystal	344.3
213.25 K, Liquid	463.5
213.29 K, Crystal	346
214.36 K, Crystal	348
215.19 K, Liquid	463.2
215.24 K, Crystal	350
216.42 K, Crystal	352.2
217.13 K, Liquid	463.5
217.18 K, Crystal	355
218.47 K, Crystal	357.6
219.08 K, Liquid	463.8
219.11 K, Crystal	360.4
220 K, Crystal	349.9
220 K, Liquid	463.8
220.51 K, Crystal	362.9
221.02 K, Crystal	365.7
221.02 K, Liquid	463.8
222.53 K, Crystal	369.1
222.93 K, Crystal	371.1
222.96 K, Liquid	464.1
224.55 K, Crystal	375
224.82 K, Crystal	376.7
224.9 K, Liquid	464.7
226.56 K, Crystal	381
226.7 K, Crystal	382.4
226.85 K, Liquid	464.9
228.55 K, Crystal	387.4
228.58 K, Crystal	388.3
228.8 K, Liquid	465.8
230 K, Crystal	364.9
230 K, Liquid	465.8
230.44 K, Crystal	395.1
230.53 K, Crystal	394.5
230.75 K, Liquid	466.6
232.29 K, Crystal	402.4
232.49 K, Crystal	402.1
234.12 K, Crystal	411.7
234.44 K, Crystal	412
235.93 K, Crystal	423.8
236.36 K, Crystal	424.6
237.7 K, Crystal	441.5
238.24 K, Crystal	445.5
239.43 K, Crystal	472
240 K, Crystal	379.9
240 K, Liquid	468.9
240.06 K, Crystal	487.8
245.81 K, Crystal	388.6
245.81 K, Liquid	471
248.34 K, Liquid	472
249.07 K, Liquid	472.3
250 K, Liquid	472.6
250.32 K, Liquid	472.8
251 K, Liquid	473.1
252.27 K, Liquid	473.7
252.93 K, Liquid	473.9
254.22 K, Liquid	474.5
254.87 K, Liquid	474.8
256.17 K, Liquid	475.4
256.8 K, Liquid	475.6
258.12 K, Liquid	476.2
258.74 K, Liquid	476.5
260 K, Liquid	477.3
260.07 K, Liquid	477.3
260.67 K, Liquid	477.6
262.02 K, Liquid	478.2
262.61 K, Liquid	478.5
263.97 K, Liquid	479.3
264.54 K, Liquid	479.6
265.92 K, Liquid	480.1
266.48 K, Liquid	480.4
267.87 K, Liquid	481.3
268.42 K, Liquid	481.6
269.82 K, Liquid	482.1
270 K, Liquid	482.4
270.35 K, Liquid	482.4
271.77 K, Liquid	483.2
272.29 K, Liquid	483.5
273.73 K, Liquid	484.4
274.23 K, Liquid	484.7
275.68 K, Liquid	485.2
276.16 K, Liquid	485.5
277.63 K, Liquid	486.6
278.1 K, Liquid	486.6
279.58 K, Liquid	487.8
280 K, Liquid	487.7
281.53 K, Liquid	488.9
283.48 K, Liquid	489.7
285.44 K, Liquid	490.9
287.39 K, Liquid	492
289.34 K, Liquid	493.1
290 K, Liquid	493.2
291.29 K, Liquid	494.2
293.24 K, Liquid	495.4
295.19 K, Liquid	496.5
297.15 K, Liquid	497.3
298.15 K, Liquid	497.8
299.1 K, Liquid	498.5
300 K, Liquid	498.9
301.05 K, Liquid	499.6
303 K, Liquid	500.7
304.95 K, Liquid	502.1
306.9 K, Liquid	503
308.86 K, Liquid	504.4
310 K, Liquid	504.8
310.81 K, Liquid	505.2
312.76 K, Liquid	506.4
314.71 K, Liquid	507.5
316.67 K, Liquid	508.9
318.62 K, Liquid	510
320 K, Liquid	510.9
320.57 K, Liquid	511.1
322.53 K, Liquid	512.3
324.48 K, Liquid	513.4
326.44 K, Liquid	514.8
328.39 K, Liquid	515.9
330 K, Liquid	517.1
330.34 K, Liquid	517.1
332.3 K, Liquid	518.5
334.25 K, Liquid	519.9
336.21 K, Liquid	521
338.16 K, Liquid	522.4
340 K, Liquid	523.6
340.11 K, Liquid	523.8
342.07 K, Liquid	524.7
344.02 K, Liquid	526.4
345.98 K, Liquid	527.2
347.93 K, Liquid	528.9
349.89 K, Liquid	530.3
350 K, Liquid	530.3
351.85 K, Liquid	531.7
353.8 K, Liquid	533.1
355.76 K, Liquid	534.2
357.71 K, Liquid	535.7
359.66 K, Liquid	536.8
360 K, Liquid	537.1
361.61 K, Liquid	538.2
363.57 K, Liquid	539.3
365.52 K, Liquid	540.7
367.47 K, Liquid	542.4
370 K, Liquid	544.2
